These compounds were tested on A431 cell (assay: Cell Proliferation Inhibition EGFR Assay (SRB method)). Conditions: Homo sapiens, A-431; A431 cells, 72 hours exposure, Sulforhodamine B; read-out: IC50 (A431).
Type: cell-based, homo sapient
How it was run: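 A431 cells grown to ~85% confluence, then exposed 72 hours at 37° C to 6 to 7 serial concentrations of compound in DMEM/F12 + 10% FBS, final DMSO ≤0.5%. Growth measured by TCA fixation and sulforhodamine B staining; IC50 calculated from inhibition rates.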
Work on `CCN(CC)CCN1CCc2[nH]c(/C=C3\C(=O)Nc4ncnc(Nc5ccc(F)c(Cl)c5)c43)c(C)c2C1=O` [Example 12, 4-(3-Chlor O-4-fluoro-phenylamino)-5-[5-(2-diethylamino-ethyl)-3-methyl-4-oxo-4,5,6,7-tetrahydro-1H-pyrrolo[3,2-c]pyridine-2-ylmethylene]-5,7-dihydro-pyrrolo[2,3-d]pyrimidin-6-one] yielded an IC50 of 67 nM.
With `Cc1c(/C=C2\C(=O)Nc3ccc(Cl)cc32)[nH]c2c1C(=O)N(CCN1CCOCC1)CC2` [Example 16, 2-(5-Chloro-2-oxo-1,2-dihydro-indol-3-ylidenemethyl)-3-methyl-5-(2-morpholin-4-yl-ethyl)-1,5,6,7-tetrahydro-pyrrolo[3,2-c]pyridin-4-one] the IC50 was 10200 nM.
Compound `Cc1c(/C=C2\C(=O)Nc3ncnc(Nc4ccc(F)c(Cl)c4)c32)[nH]c2c1C(=O)N(CCN1CCOCC1)CC2` [Example 24, 4-(3-Chloro-4-fluoro-phenylamino)-5-[3-methyl-5-(2-morpholin-4-yl-ethyl)-4-oxo-4,5,6,7-tetrahydro-1H-pyrrolo[3,2-c]pyridine-2-ylmethylenene]-5,7-dihydro-pyrrolo[2,3-d]pyrimidin-6-one] has an IC50 of 330 nM.
Compound `CCN(CC)CCN1CCc2[nH]c(/C=C3\C(=O)Nc4cccc(Br)c43)c(C)c2C1=O` [Example 30, 2-(4-Bromo-2-oxo-1,2-dihydro-indol-3-ylidenemethyl)-5-(2-diethylamino-ethyl)-3-methyl-1,5,6,7-tetrahydro-pyrrolo[3,2-c]pyridin-4-one] has an IC50 of 330 nM.
`CCN(CC)CCN1CCc2[nH]c(/C=C3\C(=O)Nc4cccc(C5CCNCC5)c43)c(C)c2C1=O` [Example 31, 5-(2-Diethylamino-ethyl)-3-methyl-2-(2-oxo-4-piperidin-4-yl-1,2-dihydro-indol-3-ylidenemethyl)-1,5,6,7-tetrahydro-pyrrolo[3,2-c]pyridin-4-one] showed an IC50 of 350 nM.
Compound `CCN(CC)CCN1CCc2[nH]c(/C=C3\C(=O)Nc4cccc(-c5ccc(Cl)cc5F)c43)c(C)c2C1=O` [Example 34, 2-[4-(4-Chloro-2-fluoro-phenyl)-2-oxo-1,2-dihydro-indol-3-ylidenemethyl]-5-(2-diethylamino-ethyl)-3-methyl-1,5,6,7-tetrahydro-pyrrolo[3,2-c]pyridin-4-one] has an IC50 of 3230 nM.
Compound `CCN(CC)CCN1CCc2[nH]c(/C=C3\C(=O)Nc4ccc(OC)cc43)c(C)c2C1=O` [Example 35, 5-(2-Diethylamino-ethyl)-2-(5-methoxy-2-oxo-1,2-dihydro-indol-3-ylidenemethyl)-3-methyl-1,5,6,7-tetrahydro-pyrrolo[3,2-c]pyridin-4-one] has an IC50 of 4350 nM.
In the case of `CCN(CC)CCN1CCc2[nH]c(/C=C3\C(=O)Nc4cccc(-c5cccc(Cl)c5F)c43)c(C)c2C1=O` [Example 36, 2-[4-(3-Chloro-2-fluoro-phenyl)-2-oxo-1,2-dihydro-indol-3-ylidenemethyl]-5-(2-diethylamino-ethyl)-3-methyl-1,5,6,7-tetrahydro-pyrrolo[3,2-c]pyridin-4-one], the IC50 is reported as 7320 nM.
`CCN(CC)CCN1CCc2[nH]c(/C=C3\C(=O)Nc4cccc(CCO)c43)c(C)c2C1=O` [Example 37, 5-(2-Diethylamino-ethyl)-2-[4-(2-hydroxy-ethyl)-2-oxo-1,2-dihydro-indol-3-ylidenemethyl]-3-methyl-1,5,6,7-tetrahydro-pyrrolo[3,2-c]pyridin-4-one] showed an IC50 of 3850 nM.
Compound `CCN(CC)CCN1CCc2[nH]c(/C=C3\C(=O)Nc4cccc(-c5cccc(F)c5F)c43)c(C)c2C1=O` [Example 39, 5-(2-diethylamino-ethyl)-2-[4-(2,3-difluoro-phenyl)-2-oxo-1,2-dihydro-indol-3-ylidenemethyl]-3-methyl-1,5,6,7-tetrahydro-pyrrolo[3,2-c]pyridin-4-one] has an IC50 of 380 nM.
In the case of `Cc1c(/C=C2\C(=O)Nc3cccc(CCO)c32)[nH]c2c1C(=O)N(CCN1CCOCC1)CC2` [Example 42, 2-[4-(2-Hydroxy-ethyl)-2-oxo-1,2-dihydro-indol-3-ylidenemethyl]-3-methyl-5-(2-morpholin-4-yl-ethyl)-1,5,6,7-tetrahydro-pyrrolo[3,2-c]pyridin-4-one], the IC50 is reported as 16500 nM.
Compound `Cc1c(/C=C2\C(=O)Nc3ncc(Br)cc32)[nH]c2c1C(=O)N(CCN1CCOCC1)CC2` [Example 50, 2-(5-Bromo-2-oxo-1,2-dihydro-pyrrolo[2,3-b]pyridin-3-ylidenemethyl)-3-methyl-5-(2-morpholin-4-yl-ethyl)-1,5,6,7-tetrahydro-pyrrolo[3,2-c]pyridin-4-one] has an IC50 of 15900 nM.
`Cc1c(/C=C2\C(=O)Nc3cccc(C4CCNCC4)c32)[nH]c2c1C(=O)N(CCN1CCOCC1)CC2` [Example 52, 3-Methyl-5-(2-morpholin-4-yl-ethyl)-2-(2-oxo-4-piperidin-4-yl-1,2-dihydro-indol-3-ylidenemethyl)-1,5,6,7-tetrahydro-pyrrolo[3,2-c]pyridin-4-one] gave an IC50 of 1900 nM.
Compound `Cc1c(/C=C2\C(=O)Nc3cccc(-c4cccc(F)c4F)c32)[nH]c2c1C(=O)N(CCN1CCCC1)CC2` [Example 59, 2-[4-(2,3-Difluoro-phenyl)-2-oxo-1,2-dihydro-indol-3-ylidenemethyl]-3-methyl-5-(2-pyrrolidin-1-yl-ethyl)-1,5,6,7-tetrahydro-pyrrolo[3,2-c]pyridin-4-one] has an IC50 of 2190 nM.
